# Measurements as given in patent US8703701B2 (Indiana University Research and Technology Corporation, priority 2009, dated 2014).
# Starred links: 1 amine or outer side, 2 acyl side, 3 side chain; linkers in the order of their positions; H or OH if unused. Non-standard residues stand in square brackets, D forms with d. Residues, ends and D or L forms follow the SMILES beside them. Groups on a side chain read outwards from the residue. *: point of attachment. γGlu = O=C(O)[C@H](CCC(=O)[*:2])N[*:1]; Palmitoyl = CCCCCCCCCCCCCCCC(=O)*; Aib = CC(C)(N)C(=O)O
# How the values were obtained:
# glucagon receptor = target: T1, glucagon receptor (Homo sapiens, UniProt P47871); test: cAMP induction, firefly luciferase reporter assay, glucagon receptor; format: cell-based; conditions: for Activity at Glucagon Receptor % Relative Activity: compared to native glucagon
# T1 construct: expressed in transfected cells; host or cells: HEK293
# Protocol: (§1) The ability of each peptide to induce cAMP was measured in a firefly luciferase-based reporter assay.
# (§2) At the end of the incubation, 100 μL of LucLite luminescence substrate reagent (Perkin Elmer, Wellesley, Mass.) were added to each well. The plate was shaken briefly, incubated 10 min in the dark and light output was measured on MicroBeta-1450 liquid scintillation counter (Perkin-Elmer, Wellesley, Mass.).
# GLP-1 receptor = target: T2, GLP-1 receptor (Homo sapiens, UniProt P43220); test: cAMP induction, firefly luciferase reporter assay, GLP-1 receptor; format: cell-based; conditions: for Activity at GLP-1 Receptor % Relative Activity: compared to native GLP-1
# T2 construct: expressed in transfected cells; host or cells: HEK293
# Protocol: as §1, §2
# [1] = Activity at GLP-1 Receptor EC50 [pM], Table 3A
# T1 sequence (P47871 26-477): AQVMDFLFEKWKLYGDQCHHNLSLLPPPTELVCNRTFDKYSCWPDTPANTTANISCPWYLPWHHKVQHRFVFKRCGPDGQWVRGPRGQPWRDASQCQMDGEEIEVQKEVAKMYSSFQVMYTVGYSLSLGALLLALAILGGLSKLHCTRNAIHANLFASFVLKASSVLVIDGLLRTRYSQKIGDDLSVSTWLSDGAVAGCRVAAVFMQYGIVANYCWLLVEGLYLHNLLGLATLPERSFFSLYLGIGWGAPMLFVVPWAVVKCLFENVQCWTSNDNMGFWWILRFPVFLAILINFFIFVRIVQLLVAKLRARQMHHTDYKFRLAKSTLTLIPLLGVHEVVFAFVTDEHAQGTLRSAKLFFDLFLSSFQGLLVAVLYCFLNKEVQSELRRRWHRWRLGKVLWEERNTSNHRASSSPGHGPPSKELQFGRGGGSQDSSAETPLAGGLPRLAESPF
# T2 sequence (P43220 24-463): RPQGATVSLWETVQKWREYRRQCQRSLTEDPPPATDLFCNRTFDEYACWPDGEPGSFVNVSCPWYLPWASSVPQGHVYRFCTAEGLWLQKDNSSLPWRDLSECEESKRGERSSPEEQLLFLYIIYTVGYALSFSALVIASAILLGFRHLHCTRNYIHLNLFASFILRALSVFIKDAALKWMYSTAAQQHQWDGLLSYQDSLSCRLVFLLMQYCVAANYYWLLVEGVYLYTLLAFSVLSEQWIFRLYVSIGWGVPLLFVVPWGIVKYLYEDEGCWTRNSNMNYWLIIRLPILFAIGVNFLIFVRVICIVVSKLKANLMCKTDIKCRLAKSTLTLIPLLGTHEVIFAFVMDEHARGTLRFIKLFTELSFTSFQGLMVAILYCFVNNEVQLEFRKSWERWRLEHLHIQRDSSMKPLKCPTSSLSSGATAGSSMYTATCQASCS
Activity at Glucagon Receptor % Relative Activity (glucagon receptor; Table 3A),EC50 (GLP-1 receptor; [1]),Activity at GLP-1 Receptor % Relative Activity (GLP-1 receptor; Table 3A),Activity at Glucagon Receptor % Relative Activity (glucagon receptor; Table 2B),Activity at GLP-1 Receptor % Relative Activity (GLP-1 receptor; Table 2B),also measured,Compound
–,–,–,–,–,"Activity at Glucagon Receptor % Relative Activity (glucagon receptor; Table 3C): 121%; EC50 (GLP-1 receptor; Activity at GLP-1 Receptor EC50 [nM], Table 3C): 0.02 nM; Activity at GLP-1 Receptor % Relative Activity (GLP-1 receptor; Table 3C): 345%",CCCCCCCCCCCCCCCC(=O)N[C@@H](CCC(=O)NCCCC[C@H](NC(=O)[C@H](CC(=O)O)NC(=O)[C@H](CO)NC(=O)[C@@H](NC(=O)[C@H](Cc1ccccc1)NC(=O)[C@@H](NC(=O)CNC(=O)[C@H](CCC(N)=O)NC(=O)[C@@H](CO)NC(=O)[C@@H](N)Cc1c[nH]cn1)[C@@H](C)O)[C@@H](C)O)C(=O)N[C@@H](CO)C(=O)N[C@@H](CCCCN)C(=O)N[C@@H](Cc1ccc(O)cc1)C(=O)N[C@@H](CC(C)C)C(=O)N[C@@H](CC(=O)O)C(=O)N[C@@H](CCC(=O)O)C(=O)N[C@@H](CCC(N)=O)C(=O)N[C@@H](C)C(=O)N[C@@H](C)C(=O)N[C@@H](CCCCN)C(=O)N[C@@H](CCC(=O)O)C(=O)N[C@@H](Cc1ccccc1)C(=O)N[C@H](C(=O)N[C@@H](CS)C(=O)N[C@@H](Cc1c[nH]c2ccccc12)C(=O)N[C@@H](CC(C)C)C(=O)N[C@@H](CC(C)C)C(=O)N[C@@H](CC(=O)O)C(=O)N[C@@H](CCC(=O)O)C(N)=O)[C@@H](C)CC)C(=O)O [compound 82] (H-H[dS]QGTFTSDK([γGlu-Palmitoyl])SKYLDEQAAKEFICWLLDE-NH2; N-terminus assumed)
75%,0.003 nM,759%,–,–,–,CCCCCCCCCCCCCCCC(=O)N[C@@H](CCC(=O)N[C@@H](CCC(=O)NCCCC[C@H](NC(=O)[C@H](CC(=O)O)NC(=O)[C@H](CO)NC(=O)[C@@H](NC(=O)[C@H](Cc1ccccc1)NC(=O)[C@@H](NC(=O)CNC(=O)[C@H](CCC(=O)O)NC(=O)C(C)(C)NC(=O)[C@@H](N)Cc1c[nH]cn1)[C@@H](C)O)[C@@H](C)O)C(=O)N[C@@H](CO)C(=O)N[C@@H](CCCCN)C(=O)N[C@@H](Cc1ccc(O)cc1)C(=O)N[C@@H](CC(C)C)C(=O)N[C@@H](CC(=O)O)C(=O)NC(C)(C)C(=O)N[C@@H](CCCNC(=N)N)C(=O)N[C@@H](C)C(=O)N[C@@H](C)C(=O)N[C@@H](CCC(N)=O)C(=O)N[C@@H](CC(=O)O)C(=O)N[C@@H](Cc1ccccc1)C(=O)N[C@H](C(=O)N[C@@H](CCC(N)=O)C(=O)N[C@@H](Cc1c[nH]c2ccccc12)C(=O)N[C@@H](CC(C)C)C(=O)N[C@@H](CCSC)C(=O)N[C@@H](CC(=O)O)C(=O)N[C@H](C(N)=O)[C@@H](C)O)C(C)C)C(=O)O)C(=O)O [compound 45] (H-H[Aib]EGTFTSDK([γGlu-γGlu-Palmitoyl])SKYLD[Aib]RAAQDFVQWLMDT-NH2; N-terminus assumed)
–,–,–,264%,64%,–,CSCC[C@H](NC(=O)[C@H](CC(C)C)NC(=O)[C@H](Cc1c[nH]c2ccccc12)NC(=O)[C@H](CCC(N)=O)NC(=O)[C@@H](NC(=O)[C@H](Cc1ccccc1)NC(=O)[C@H](CCC(=O)O)NC(=O)[C@H](CCCCN)NC(=O)[C@H](C)NC(=O)[C@H](CCCNC(=N)N)NC(=O)[C@H](CCCCN)NC(=O)[C@H](CCC(=O)O)NC(=O)[C@H](CC(=O)O)NC(=O)[C@H](CC(C)C)NC(=O)[C@H](Cc1ccc(O)cc1)NC(=O)[C@H](CCCCN)NC(=O)[C@H](CO)NC(=O)[C@H](Cc1ccc(O)cc1)NC(=O)[C@H](CC(=O)O)NC(=O)[C@H](CO)NC(=O)[C@@H](NC(=O)[C@H](Cc1ccccc1)NC(=O)[C@@H](NC(=O)CNC(=O)[C@H](CCC(N)=O)NC(=O)[C@H](CO)NC(=O)[C@@H](N)Cc1c[nH]cn1)[C@@H](C)O)[C@@H](C)O)C(C)C)C(=O)N[C@@H](CC(N)=O)C(=O)N[C@H](C(N)=O)[C@@H](C)O [compound 65]
379%,0.0029 nM,1276%,–,–,"EC50 (glucagon receptor; Activity at Glucagon Receptor EC50 [pM], Table 3A): 2.9 pM",CCCCCCCCCCCCCCCC(=O)N[C@@H](CCC(=O)NCCCC[C@H](NC(=O)[C@H](CC(=O)O)NC(=O)[C@H](CO)NC(=O)[C@@H](NC(=O)[C@H](Cc1ccccc1)NC(=O)[C@@H](NC(=O)CNC(=O)[C@H](CCC(N)=O)NC(=O)C(C)(C)NC(=O)[C@@H](N)Cc1c[nH]cn1)[C@@H](C)O)[C@@H](C)O)C(=O)N[C@@H](CO)C(=O)N[C@@H](CCCCN)C(=O)N[C@@H](Cc1ccc(O)cc1)C(=O)N[C@@H](CC(C)C)C(=O)N[C@@H](CC(=O)O)C(=O)N[C@@H](CCC(=O)O)C(=O)N[C@@H](CCC(N)=O)C(=O)N[C@@H](C)C(=O)N[C@@H](C)C(=O)N[C@@H](CCCCN)C(=O)N[C@@H](CCC(=O)O)C(=O)N[C@@H](Cc1ccccc1)C(=O)N[C@H](C(=O)N[C@@H](C)C(=O)N[C@@H](Cc1c[nH]c2ccccc12)C(=O)N[C@@H](CC(C)C)C(=O)N[C@@H](CC(C)C)C(=O)N[C@@H](CC(=O)O)C(=O)N[C@H](C(N)=O)[C@@H](C)O)[C@@H](C)CC)C(=O)O [compound 52]
467%,–,575%,–,–,–,CCCCCCCCCCCCCCCC(=O)N[C@@H](CCC(=O)NCCCC[C@H](NC(=O)[C@H](CC(=O)O)NC(=O)[C@H](CO)NC(=O)[C@@H](NC(=O)[C@H](Cc1ccccc1)NC(=O)[C@@H](NC(=O)CNC(=O)[C@H](CCC(N)=O)NC(=O)C(C)(C)NC(=O)[C@@H](N)Cc1c[nH]cn1)[C@@H](C)O)[C@@H](C)O)C(=O)N[C@@H](CO)C(=O)N[C@@H](CCCCN)C(=O)N[C@@H](Cc1ccc(O)cc1)C(=O)N[C@@H](CC(C)C)C(=O)N[C@@H](CC(=O)O)C(=O)NC(C)(C)C(=O)N[C@@H](CCCNC(=N)N)C(=O)N[C@@H](C)C(=O)N[C@@H](C)C(=O)N[C@@H](CCC(N)=O)C(=O)N[C@@H](CC(=O)O)C(=O)N[C@@H](Cc1ccccc1)C(=O)N[C@H](C(=O)N[C@@H](CCC(N)=O)C(=O)N[C@@H](Cc1c[nH]c2ccccc12)C(=O)N[C@@H](CC(C)C)C(=O)N[C@@H](CCSC)C(=O)N[C@@H](CC(=O)O)C(=O)N[C@H](C(N)=O)[C@@H](C)O)C(C)C)C(=O)O [compound 43] (H-H[Aib]QGTFTSDK([γGlu-Palmitoyl])SKYLD[Aib]RAAQDFVQWLMDT-NH2; N-terminus assumed)
–,–,–,93%,47%,–,CSCC[C@H](NC(=O)[C@H](CC(C)C)NC(=O)[C@H](Cc1c[nH]c2ccccc12)NC(=O)[C@H](CCC(N)=O)NC(=O)[C@@H](NC(=O)[C@H](Cc1ccccc1)NC(=O)[C@H](CC(=O)O)NC(=O)[C@H](CCCCN)NC(=O)[C@H](C)NC(=O)[C@H](CCCNC(=N)N)NC(=O)[C@H](CCCNC(=N)N)NC(=O)[C@H](CCC(=O)O)NC(=O)[C@H](CC(=O)O)NC(=O)[C@H](CC(C)C)NC(=O)[C@H](Cc1ccc(O)cc1)NC(=O)[C@H](CCCCN)NC(=O)[C@H](CO)NC(=O)[C@H](Cc1ccc(O)cc1)NC(=O)[C@H](CC(=O)O)NC(=O)[C@H](CO)NC(=O)[C@@H](NC(=O)[C@H](Cc1ccccc1)NC(=O)[C@@H](NC(=O)CNC(=O)[C@H](CCC(N)=O)NC(=O)[C@H](CO)NC(=O)[C@@H](N)Cc1c[nH]cn1)[C@@H](C)O)[C@@H](C)O)C(C)C)C(=O)N[C@@H](CC(N)=O)C(=O)N[C@H](C(N)=O)[C@@H](C)O [compound 67]
